{
  "source": "patent US12421489B2",
  "about": "“Biological control of plant pathogenic microorganisms” (priority 2016, dated 2025)",
  "test_system": "postharvest kiwifruit fruit pathogens",
  "experiment": "Assays 8 and 9 overall: wound protection of ‘Hongyang’ kiwifruit (discussion)",
  "format": "in vivo",
  "conditions": "wounded ‘Hongyang’ kiwifruit, treatment 24 hours before pathogen",
  "description": "The kiwifruit ‘Hongyang’-based screening assays (assays 8 and 9) were conducted in laboratories at the Plant and Food Research Ruakura Research Centre, Hamilton, New Zealand (PFR). PFR assays focused on wound application of YBCA5 treatment, a commercial biological control treatment and a fungicide were used as comparative controls.\nJust prior to wound treatment, each fruit was wounded on the side with a sterile stainless steel spike (4 mm deep×3 mm wide) and 10 μl of each treatment suspension was pipetted into the wound and allowed to dry.\nFor assays 8 and 9, two sterile paper towels were placed beneath Plix cut-outs, moistened with 40 mL SDW and each fruit placed in disposable lunch boxes (Plix Extra Deep 45/45, containing five Plix fruit cut-outs to prevent fruit from moving), sealed, then placed into large (40 L) plastic bins which were closed to ensure high relative humidity for the first 24 h and incubated on the lab bench at 24° C. […] After 6 days, (Alternaria spp. Botrytis spp., Penicillium spp., Phomopsis spp., Colletotrichum spp.) and 7 days (Cryptosporiopsis spp.), the severity of fungal rot was assessed for each treatment by measuring the lesion length (mm) along the axis of the fruit. Data were expressed as the average lesion length, minus the initial width of the wound (3 mm). […]",
  "data": [
    {"smiles": "CC(C)NC(=O)N1CC(=O)N(c2cc(Cl)cc(Cl)c2)C1=O", "note": "[iprodione]", "values": [
      {"measurement": "overall performance as wound protectant", "result": "performed poorly"}
    ]}
  ]
}
